Experiments:
[1] = target: T1, hTopo I (Homo sapiens, UniProt P11387); assay: hTopo I relaxation assay; assay type: biochemical; parameters: key to Topoisomerase Inhibition hTopo I: (+) inhibition; (−) no inhibition; (+/−) partial inhibition; settings: 10 µM
T1 construct: purchased TopoGEN, Port Orange, FL, USA
T1 sequence (P11387 1-765): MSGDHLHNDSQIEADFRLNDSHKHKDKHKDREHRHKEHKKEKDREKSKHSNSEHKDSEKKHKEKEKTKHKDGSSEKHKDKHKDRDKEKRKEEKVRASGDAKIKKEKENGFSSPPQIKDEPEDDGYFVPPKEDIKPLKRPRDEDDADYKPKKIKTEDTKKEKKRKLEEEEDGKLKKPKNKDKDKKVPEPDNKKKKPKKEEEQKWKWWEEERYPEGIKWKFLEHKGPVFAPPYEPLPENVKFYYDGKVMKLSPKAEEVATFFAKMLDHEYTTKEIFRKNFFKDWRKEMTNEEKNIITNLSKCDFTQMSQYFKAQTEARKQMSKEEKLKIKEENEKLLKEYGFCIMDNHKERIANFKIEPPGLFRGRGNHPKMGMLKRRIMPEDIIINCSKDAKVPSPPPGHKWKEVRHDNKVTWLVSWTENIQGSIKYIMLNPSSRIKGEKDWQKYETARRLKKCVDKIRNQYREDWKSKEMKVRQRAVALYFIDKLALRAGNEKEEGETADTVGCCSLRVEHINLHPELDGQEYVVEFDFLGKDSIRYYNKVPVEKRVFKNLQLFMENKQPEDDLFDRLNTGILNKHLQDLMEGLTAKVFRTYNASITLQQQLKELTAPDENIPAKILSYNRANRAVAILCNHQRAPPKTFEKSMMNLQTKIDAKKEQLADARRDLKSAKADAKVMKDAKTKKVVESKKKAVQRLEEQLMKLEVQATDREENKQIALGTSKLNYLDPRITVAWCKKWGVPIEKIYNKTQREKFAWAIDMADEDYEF
From the text: Thiazoles and their derivatives are extensively recognized as chemical nuclei of great interest for producing molecules with multiple biological properties. In particular, several compounds bearing these heterocycles were studied for their capability to interfere with DNA topoisomerases (Topos), ubiquitous enzymes essential in several key cellular processes. In recent years, these enzymes have become popular targets in cancer therapy; indeed, the topoisomerase inhibitors can induce damage to genome integrity. Consequently, the inhibition of topoisomerases leads to cell death by apoptosis and, thus, is fatal. Thus, we carried out two specific tests in vitro for both of the Topos, namely the hTopo I relaxation and the hTopo II decatenation assays. For the hTopo I relaxation assay, we exposed the enzyme to the most interesting compounds, 7b–7e, at the final concentration of 10 µM for 1 h at 37 °C, using as substrate the supercoiled pHOT1 (see Section 4 Materials and Methods for more details). […] Contrarily, in the CTRL lane, where the hTopo I was exposed to only vehicle (DMSO), several bands due to pHOT1 DNA cleavage were present (Figure 3, lane C). […] In Figure 3, panel B, the hTopo I inhibition results using ellipticine, as reference molecule are shown. […] An electrophoretic mobility shift of the pHOT1 DNA was also noticeable, due to the intercalating properties of ellipticine.
hTopo I relaxation assays were performed by incubating the substrate (supercoiled pHOT1) with the recombinant hTopo I (TopoGEN, Port Orange, FL, USA) and compounds, as indicated in the supplier protocol (TopoGEN, Port Orange, FL, USA), with some revisions. hTopo II decatenation assays were conducted by incubating the kinetoplast DNA substrate (kDNA) with the hTopo II (TopoGEN, Port Orange, FL) and studied compounds, as indicated in the supplier procedures (TopoGEN, Port Orange, FL, USA), with some changes as in [80].
Figure 3 hTopo I relaxation assay. Plasmid pHOT1, used as substrate, was incubated with hTopo I with or without the studied compounds 7b–7e (10 µM concentration), panel (A), and with or without ellipticine (10 and 50 µM concentration), panel (B). Lane A, relaxed DNA marker; lane B, pHOT1 supercoiled DNA, lane C, CTRL (DMSO), lane D–G, compounds 7b–7e 10 µM, respectively. Lane 1, pHOT1 supercoiled DNA; lane 2, CTRL (DMSO), lanes 3–4, ellipticine 10 and 50 µM, respectively.

[2] = test system: MCF-7 cells; assay: TUNEL assay; assay type: cell-based, human; settings: at IC50 value, 24 h
From the text: Numerous data in the literature indicate that topoisomerase inhibitors are among the most efficient inducers of apoptosis. […] As reference molecule, we adopted ellipticine for this assay, also. […] In contrast, no fluorescence was visible in the DMSO-treated cells used as negative control (Figure 5, CTRL, panel B). These outcomes indicated the ability of the studied compound to induce DNA damage, as ellipticine did, triggering cancer cells death.
Cell apoptosis was detected by means of the TUNEL assay, following the manufacturer’s protocols (CF™488A TUNEL Assay Apoptosis Detection Kit, Biotium, Hayward, CA, USA), with few modifications, as already reported. DAPI staining (0.2 μg/mL, Sigma Aldrich, Milan, Italy) was used for cell nuclei. A fluorescence microscope (Leica DM 6000) was used for the observations at 20× magnification. LAS-X software allowed the acquisition and processing of all of the images, which were representative of three separate experiments.
Figure 5 TUNEL assay. MCF-7 breast cancer cells were exposed to compounds 7e and ellipticine (E) at their IC50 values, or to the vehicle (DMSO) for 24 h. Then, they were further processed, as reported in Section 4, and imaged under a fluorescence microscope (20× magnification). Panels (A), DAPI λex,em= 350 nm/460 nm; panels (B), CF^TM488A, λex,em = 490 nm/515 nm; panels (C) show the merge channel.

[3] = test system: caspases 3/7; assay: Caspase-Glo assay, caspase-3/7; assay type: cell-based, human; settings: MCF-7 cells, at IC50 value, 24 h, vs vehicle
Experimental: Once established that mitochondria were damaged and cyt c released into the cytoplasm, we evaluated the ability of compound 7e treatment (used at its IC50 value) in modulating caspase activity.
The caspase-Glo Assay (Caspase-Glo® 3/7, 8 and 9 Assay Systems, Promega Corporation, Madison, WI) was used to detect caspase-3/7, -8 and -9 activities, as reported in [82]. Briefly, cells were grown in white-walled 96-well plates, treated with the compound, and 100 µL of each […] was added.
Figure 7 Caspase activity in MCF-7 cells. […] Columns mean, bars SD; * p < 0.001; n.s., not significant (treated vs. CTRL).

With `COc1cc(/C=C2\SC(=O)N(CC(=O)Nc3nc(-c4ccc(Br)cc4)cs3)C2=O)cc(OC)c1OC` [compound 7e, (Z)-2-(5-(3,4,5-Trimethoxybenzylidene)thiazolidin-2,4-dion-3-yl)-N-(4-(4-bromophenyl)thiazol-2-yl)acetamide] the “Topoisomerase Inhibition hTopo I” value [1] was “−”, the “hTopo I activity inhibition (in words)” value ([1]; 1 h, 37 °C, supercoiled pHOT1) was “able to inhibit hTopo I activity” and the “apoptosis (TUNEL, green nuclear fluorescence)” value [2] was “had undergone the apoptotic process”. The “caspases 3/7 activity” value [3] was “higher activity”.

Reference: article PMC10384675, “Novel Thiazolidine-2,4-dione-trimethoxybenzene-thiazole Hybrids as Human Topoisomerases Inhibitors” (Pharmaceuticals, 2023)
